Patent publication US9511073B2, “Aromatic amides and uses thereof” (TAXIS Pharmaceuticals, Inc., priority 2011, dated 2016)
≈ marks a conversion by molar mass, not a printed value.

system: Staphylococcus aureus (Isolate ID ATCC 29213); experiment: Bacterial assay: MIC by broth microdilution or agar dilution (CLSI), S. aureus ATCC 29213; assay type: cell-based; conditions: S. aureus (ATCC29213)
Summary of the method: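 Activity is binned (A ≤0.25 μg/mL; B >0.25–1.0; C >1.0–16; D >16 μg/mL) from MICs determined per CLSI by broth microdilution or agar dilution, on S. aureus ATCC 29213 plus an FtsZ-G196A mutant strain.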

Row | SMILES | S. aureus MIC (μg/mL) Activity Range
1 | NC(=O)c1c(F)ccc(OC(COC(=O)NCc2ccccn2)c2nc(-c3ccc(C(F)(F)F)cc3)c(Br)o2)c1F (stereo not shown) [Compound 165, 2-(5-bromo-4-(4-(trifluoromethyl)phenyl)oazol-2-yl)-2-(3-carbamoyl-2,4-difluorophenoxy)ethyl (pyridin-2-ylmethyl)carbamate] | B (activity>0.25 μg/mL-1.0 μg/mL)

same assay, conditions: Staphylococcus aureus, ATCC29213, read-out: S. aureus MIC (μg/mL) Activity Range, S. aureus (ATCC29213)

Row | SMILES | MIC
2 | COc1ccc(-c2coc([C@H](C)Oc3ccc(F)c(C(N)=O)c3F)n2)cc1 [Compound 268A, (S)-2,6-difluoro-3-(1-(4-(4-methoxyphenyl)oxazol-2-yl)ethoxy)benzamide] | > 16 µg/mL
3 | CN(Cc1ccccn1)C(=O)OCC(Oc1ccc(F)c(C(N)=O)c1F)c1nc(-c2ccc(C(F)(F)F)cc2)c(Br)o1 (stereo not shown) [Compound 191, 2-(5-bromo-4-(4-(trifluoromethyl)phenyl)oxazol-2-yl)-2-(3-carbamoyl-2,4-difluorophenoxy)ethyl methyl(pyridin-2-ylmethyl)carbamate] | 1 to 16 µg/mL (≈ 1.53 to 24.4 µM)
4 | NC(=O)c1c(F)ccc(OC(COP(=O)(O)O)c2nc(-c3ccc(C(F)(F)F)cc3)c(Br)o2)c1F (stereo not shown) [Compound 81, 2-(5-bromo-4-(4-(trifluoromethyl)phenyl)oxazol-2-yl)-2-(3-carbamoyl-2,4-difluorophenoxy)ethyl dihydrogen phosphate] | 0.25 to 1 µg/mL
5 | Cc1cc(CNC(=O)OCC(Oc2ccc(F)c(C(N)=O)c2F)c2nc(-c3ccc(C(F)(F)F)cc3)c(Br)o2)nn1C (stereo not shown) [Compound 213, 2-(5-bromo-4-(4-(trifluoromethyl)phenyl)oxazol-2-yl)-2-(3-carbamoyl-2,4-difluorophenoxy)ethyl ((1,5-dimethyl-1H-pyrazol-3-yl)methyl)carbamate] | 0.25 to 1 µg/mL (≈ 0.38 to 1.52 µM)
6 | NC(=O)c1c(F)ccc(OC(Cn2ccnc2)c2nc(-c3ccc(C(F)(F)F)cc3)c(Br)o2)c1F (stereo not shown) [Compound 114, 3-(1-(5-bromo-4-(4-(trifluoromethyl)phenyl)oxazol-2-yl)-2-(1H-imidazol-1-yl)ethoxy)-2,6-difluorobenzamide] | 1 to 16 µg/mL (≈ 1.79 to 28.7 µM)
7 | CN(C)C(=O)c1ccc(-c2nc(C(CO)Oc3ccc(F)c(C(N)=O)c3F)oc2Br)cc1 (stereo not shown) [Compound 252, 4-(5-bromo-2-(1-(3-carbamoyl-2,4-difluorophenoxy)-2-hydroxyethyl)oxazol-4-yl)-N,N-dimethylbenzamide] | > 16 µg/mL
8 | CNCC(=O)OCC(Oc1ccc(F)c(C(N)=O)c1F)c1nc(-c2ccc(C(F)(F)F)cc2)c(Br)o1 (stereo not shown) [Compound 62, 2-(5-bromo-4-(4-(trifluoromethyl)phenyl)oxazol-2-yl)-2-(3-carbamoyl-2,4-difluorophenoxy)ethyl 2-(methylamino)acetate] | 0.25 to 1 µg/mL (≈ 0.432 to 1.73 µM)
9 | C=CCOC(=O)CCC(=O)OCC(Oc1ccc(F)c(C(N)=O)c1F)c1nc(-c2ccc(C(F)(F)F)cc2)c(Br)o1 (stereo not shown) [Compound 70, allyl (2-(5-bromo-4-(4-(trifluoromethyl)phenyl)oxazol-2-yl)-2-(3-carbamoyl-2,4-difluorophenoxy)ethyl) succinate] | 0.25 to 1 µg/mL
10 | Cc1ccc(CNC(=O)OCC(Oc2ccc(F)c(C(N)=O)c2F)c2nc(-c3ccc(C(F)(F)F)cc3)c(Br)o2)n1C (stereo not shown) [Compound 211, 2-(5-bromo-4-(4-(trifluoromethyl)phenyl)oxazol-2-yl)-2-(3-carbamoyl-2,4-difluorophenoxy)ethyl ((1,5-dimethyl-1H-pyrrol-2-yl)methyl)carbamate] | 0.25 to 1 µg/mL (≈ 0.38 to 1.52 µM)
11 | NC(=O)c1c(F)ccc(OC(CO)c2nc(-c3ccc(Cl)cc3)c(Cl)o2)c1F (stereo not shown) [Compound 47, 3-(1-(5-chloro-4-(4-chlorophenyl)oxazol-2-yl)-2-hydroxyethoxy)-2,6-difluorobenzamide] | 0.25 to 1 µg/mL (≈ 0.582 to 2.33 µM)
12 | NC(=O)c1c(F)ccc(OC(CO)c2nc(-c3ccc(N4CCCC4)c(Br)c3)c(Br)o2)c1F (stereo not shown) [Compound 256, 3-(1-(5-bromo-4-(3-bromo-4-(pyrrolidin-1-yl)phenyl)oxazol-2-yl)-2-hydroxyethoxy)-2,6-difluorobenzamide] | 1 to 16 µg/mL (≈ 1.7 to 27.2 µM)
13 | COc1ncc(-c2nc([C@@H](CO)Oc3ccc(F)c(C(N)=O)c3F)oc2Br)cn1 [Compound 257B, (R)-3-(1-(5-bromo-4-(2-methoxypyrimidin-5-yl)oxazol-2-yl)-2-hydroxyethoxy)-2,6-difluorobenzamide] | > 16 µg/mL
14 | N#Cc1ccc(-c2nc(C(CO)Oc3ccc(F)c(C(N)=O)c3F)oc2Br)s1 (stereo not shown) [Compound 236, 3-(1-(5-bromo-4-(5-cyanothiophen-2-yl)oxazol-2-yl)-2-hydroxyethoxy)-2,6-difluorobenzamide] | 0.25 to 1 µg/mL (≈ 0.532 to 2.13 µM)
15 | COc1ncc(-c2nc(C(C)Oc3ccc(F)c(C(N)=O)c3F)sc2Cl)s1 (stereo not shown) [Compound 35] | < 0.25 µg/mL
16 | NC(=O)c1c(F)ccc(OC(CCCO)c2nc(-c3ccc(C(F)(F)F)cc3)c(Br)o2)c1F (stereo not shown) [Compound 90, 3-(1-(5-bromo-4-(4-(trifluoromethyl)phenyl)oxazol-2-yl)-4-hydroxybutoxy)-2,6-difluorobenzamide] | 0.25 to 1 µg/mL (≈ 0.467 to 1.87 µM)
17 | C[C@@H](O)[C@@H](Oc1ccc(F)c(C(N)=O)c1F)c1nc(-c2ccc(OC(F)F)cc2)c(Br)o1 [Compound 297, 3-((1R,2R)-1-(5-bromo-4-(4-(difluoromethoxy)phenyl)oxazol-2-yl)-2-hydroxypropoxy)-2,6-difluorobenzamide] | < 0.25 µg/mL
18 | CNC(=O)OCC(Oc1ccc(F)c(C(N)=O)c1F)c1nc(-c2ccc(C(F)(F)F)cc2)c(Br)o1 (stereo not shown) [Compound 113, 2-(5-bromo-4-(4-(trifluoromethyl)phenyl)oxazol-2-yl)-2-(3-carbamoyl-2,4-difluorophenoxy)ethyl methylcarbamate] | 0.25 to 1 µg/mL (≈ 0.443 to 1.77 µM)

Row | SMILES | MIC
19 | C=CCC(Oc1ccc(F)c(C(N)=O)c1F)c1nc(-c2ccc(C(F)(F)F)cc2)c(Br)o1 (stereo not shown) [Compound 106, 3-((1-(5-bromo-4-(4-(trifluoromethyl)phenyl)oxazol-2-yl)but-3-en-1-yl)oxy)-2,6-difluorobenzamide] | 1 to 16 µg/mL (≈ 1.93 to 30.9 µM)
20 | CC(=O)OCC(OC(C)=O)C(Oc1ccc(F)c(C(N)=O)c1F)c1nc(-c2ccc(C(F)(F)F)cc2)c(Br)o1 (stereo not shown) [Compound 219, 3-(5-bromo-4-(4-(trifluoromethyl)phenyl)oxazol-2-yl)-3-(3-carbamoyl-2,4-difluorophenoxy)propane-1,2-diyl diacetate] | > 16 µg/mL
21 | NC(=O)c1c(F)ccc(OC(CO)c2nc(-c3cccs3)c(Br)o2)c1F (stereo not shown) [Compound 243, 3-(1-(5-bromo-4-(thiophen-2-yl)oxazol-2-yl)-2-hydroxyethoxy)-2,6-difluorobenzamide] | 1 to 16 µg/mL (≈ 2.25 to 35.9 µM)
22 | NC(=O)c1c(F)ccc(OC(COCCN2CCOCC2)c2nc(-c3ccc(C(F)(F)F)cc3)c(Br)o2)c1F (stereo not shown) [Compound 168, 3-(1-(5-bromo-4-(4-(trifluoromethyl)phenyl)oxazol-2-yl)-2-(2-morpholinoethoxy)ethoxy)-2,6-difluorobenzamide] | 1 to 16 µg/mL (≈ 1.61 to 25.8 µM)
23 | C=CCc1oc(C(CCC)Oc2ccc(F)c(C(N)=O)c2F)nc1-c1ccc(Cl)cc1 (stereo not shown) [Compound 28] | 1 to 16 µg/mL (≈ 2.24 to 35.8 µM)
24 | NC(=O)c1c(F)ccc(OC(CNC(=O)c2cccnc2)c2nc(-c3ccc(C(F)(F)F)cc3)c(Br)o2)c1F (stereo not shown) [Compound 295, N-(2-(5-bromo-4-(4-(trifluoromethyl)phenyl)oxazol-2-yl)-2-(3-carbamoyl-2,4-difluorophenoxy)ethyl)nicotinamide] | 0.25 to 1 µg/mL (≈ 0.409 to 1.64 µM)
25 | Cc1nc(-c2ccc(-c3nc(C(CO)Oc4ccc(F)c(C(N)=O)c4F)oc3Br)cc2)no1 (stereo not shown) [Compound 83, 3-(1-(5-bromo-4-(4-(5-methyl-1,2,4-oxadiazol-3-yl)phenyl)oxazol-2-yl)-2-hydroxyethoxy)-2,6-difluorobenzamide] | 1 to 16 µg/mL (≈ 1.92 to 30.7 µM)
26 | CCC(Oc1ccc(F)c(C(N)=O)c1F)c1nc(CCOC(C)=O)oc1Br (stereo not shown) [Compound 121, 2-(5-bromo-4-(1-(3-carbamoyl-2,4-difluorophenoxy)propyl)oxazol-2-yl)ethyl acetate] | > 16 µg/mL
27 | COc1cnc(-c2csc(C(CO)Oc3ccc(F)c(C(N)=O)c3F)n2)cn1 (stereo not shown) [Compound 261, 2,6-difluoro-3-(2-hydroxy-1-(4-(5-methoxypyrazin-2-yl)thiazol-2-yl)ethoxy)benzamide] | 1 to 16 µg/mL (≈ 2.45 to 39.2 µM)
28 | NC(=O)c1c(F)ccc(OC(CO)c2nc(-c3ccc(F)cc3F)co2)c1F (stereo not shown) [Compound 226, 3-(1-(4-(2,4-difluorophenyl)oxazol-2-yl)-2-hydroxyethoxy)-2,6-difluorobenzamide] | > 16 µg/mL
29 | CN(Cc1ccncc1)C(=O)OCC(Oc1ccc(F)c(C(N)=O)c1F)c1nc(-c2ccc(C(F)(F)F)cc2)c(Br)o1 (stereo not shown) [Compound 186, 2-(5-bromo-4-(4-(trifluoromethyl)phenyl)oxazol-2-yl)-2-(3-carbamoyl-2,4-difluorophenoxy)ethyl methyl(pyridin-4-ylmethyl)carbamate] | 0.25 to 1 µg/mL (≈ 0.381 to 1.53 µM)
30 | CN(C)CC(=O)OCC(Oc1ccc(F)c(C(N)=O)c1F)c1nc(-c2ccc(C(F)(F)F)cc2)c(Br)o1 (stereo not shown) [Compound 57, 2-(5-bromo-4-(4-(trifluoromethyl)phenyl)oxazol-2-yl)-2-(3-carbamoyl-2,4-difluorophenoxy)ethyl 2-(dimethylamino)acetate] | 0.25 to 1 µg/mL (≈ 0.422 to 1.69 µM)
31 | C=CCc1oc(C(CC)Oc2ccc(F)c(C(N)=O)c2F)nc1-c1ccc(Cl)cc1 (stereo not shown) [Compound 22, 3-(1-(5-allyl-4-(4-chlorophenyl)oxazol-2-yl)propoxy)-2,6-difluorobenzamide] | 1 to 16 µg/mL (≈ 2.31 to 37 µM)
32 | Cn1c(CNC(=O)OCC(Oc2ccc(F)c(C(N)=O)c2F)c2nc(-c3ccc(C(F)(F)F)cc3)c(Br)o2)nc2ccccc21 (stereo not shown) [Compound 210, 2-(5-bromo-4-(4-(trifluoromethyl)phenyl)oxazol-2-yl)-2-(3-carbamoyl-2,4-difluorophenoxy)ethyl ((1-methyl-1H-benzo[d]imidazol-2-yl)methyl)carbamate] | 0.25 to 1 µg/mL (≈ 0.36 to 1.44 µM)
33 | Cc1noc(C(Oc2ccc(F)c(C(N)=O)c2F)c2nc(-c3ccc(C(F)(F)F)cc3)co2)n1 (stereo not shown) [Compound 188, 2,6-difluoro-3-((3-methyl-1,2,4-oxadiazol-5-yl)(4-(4-(trifluoromethyl)phenyl)oxazol-2-yl)methoxy)benzamide] | > 16 µg/mL
34 | NC(=O)c1c(F)ccc(OC(COC(=O)CN2C(=O)c3ccccc3C2=O)c2nc(-c3ccc(C(F)(F)F)cc3)c(Br)o2)c1F (stereo not shown) [Compound 60, 2-(5-bromo-4-(4-(trifluoromethyl)phenyl)oxazol-2-yl)-2-(3-carbamoyl-2,4-difluorophenoxy)ethyl 2-(1,3-dioxoisoindolin-2-yl)acetate] | 0.25 to 1 µg/mL (≈ 0.36 to 1.44 µM)
